Data from US9517232B2, “Compounds for treatment of alzheimer's disease” (Medi Synergics, LLC, priority 2013, dated 2016).
Where two headings read alike, the source gives them in different places.

How the values were obtained:
[1] = molecular target: T1, Sigma1 (Homo sapiens, UniProt Q99720); settings: Data from Poster, CNS Summit (2013); cited from earlier work
[2] = molecular target: T2, M1 (Homo sapiens, UniProt P11229); settings: Data from Poster, CNS Summit (2013); cited from earlier work
T2 sequence (P11229 1-460): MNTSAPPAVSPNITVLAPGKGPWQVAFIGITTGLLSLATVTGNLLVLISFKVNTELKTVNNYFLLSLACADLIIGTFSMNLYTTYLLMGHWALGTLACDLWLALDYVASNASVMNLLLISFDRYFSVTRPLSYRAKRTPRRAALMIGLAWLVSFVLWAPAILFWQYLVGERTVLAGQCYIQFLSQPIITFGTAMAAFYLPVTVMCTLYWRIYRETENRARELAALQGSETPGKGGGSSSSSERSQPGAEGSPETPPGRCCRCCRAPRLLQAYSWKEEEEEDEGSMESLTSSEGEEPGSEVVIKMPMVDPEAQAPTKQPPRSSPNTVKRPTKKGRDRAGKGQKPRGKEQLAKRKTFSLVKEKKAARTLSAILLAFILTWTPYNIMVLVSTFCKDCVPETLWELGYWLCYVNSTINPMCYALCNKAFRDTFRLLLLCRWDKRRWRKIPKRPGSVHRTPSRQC

[3] = molecular target: M3 (Homo sapiens, UniProt P20309); settings: Data from Poster, CNS Summit (2013); cited from earlier work
[4] = molecular target: T3, M2 (Homo sapiens, UniProt P08172); settings: Data from Poster, CNS Summit (2013); cited from earlier work
T3 sequence (P08172 1-466): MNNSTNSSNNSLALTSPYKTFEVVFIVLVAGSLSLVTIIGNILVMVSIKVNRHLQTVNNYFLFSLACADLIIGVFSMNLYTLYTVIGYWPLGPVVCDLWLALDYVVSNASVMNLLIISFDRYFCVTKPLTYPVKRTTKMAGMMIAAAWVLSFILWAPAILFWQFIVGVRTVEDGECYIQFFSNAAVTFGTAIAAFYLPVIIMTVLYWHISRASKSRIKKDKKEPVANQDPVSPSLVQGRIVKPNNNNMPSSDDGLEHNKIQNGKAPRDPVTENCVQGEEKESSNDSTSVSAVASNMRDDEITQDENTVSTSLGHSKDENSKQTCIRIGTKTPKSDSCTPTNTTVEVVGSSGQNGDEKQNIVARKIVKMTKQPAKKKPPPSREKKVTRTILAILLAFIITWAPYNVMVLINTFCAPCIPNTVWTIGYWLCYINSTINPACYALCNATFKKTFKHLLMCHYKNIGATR

[5] = molecular target: T4, M4 (Homo sapiens, UniProt P08173); settings: Data from Poster, CNS Summit (2013); cited from earlier work
T4 sequence (P08173 1-479): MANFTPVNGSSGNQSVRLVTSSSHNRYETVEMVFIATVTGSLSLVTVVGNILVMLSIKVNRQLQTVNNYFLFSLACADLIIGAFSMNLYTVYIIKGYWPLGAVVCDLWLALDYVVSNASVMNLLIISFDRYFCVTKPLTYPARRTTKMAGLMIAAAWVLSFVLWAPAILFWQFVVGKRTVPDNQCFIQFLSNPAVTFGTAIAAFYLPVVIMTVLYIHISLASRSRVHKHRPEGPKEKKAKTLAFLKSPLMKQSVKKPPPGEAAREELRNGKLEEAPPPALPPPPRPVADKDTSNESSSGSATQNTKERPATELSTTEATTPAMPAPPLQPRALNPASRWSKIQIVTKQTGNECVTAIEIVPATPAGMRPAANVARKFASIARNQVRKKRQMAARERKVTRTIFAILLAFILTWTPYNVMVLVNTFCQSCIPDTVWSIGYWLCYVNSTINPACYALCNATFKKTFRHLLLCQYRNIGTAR

[6] = molecular target: T3, M2; experiment: Muscarinic M2 receptor Ki determination (NIMH PDSP); assay type: binding
Protocol: (§1) The compounds from the above Examples were tested for Sigma-1 and muscarinic M1-M5) activities. Ki determinations were generously provided by the National Institute of Mental Health's Psychoactive Drug Screening Program (PDSP), Contract #HHSN-271-2013-00017-C (NIMH PDSP). The NIMH PDSP is directed by Bryan L. Roth M D, PhD at the University of North Carolina at Chapel Hill and Project Officer Jamie Driscoll at NIMH, Bethesda Md., USA. Procedures employed by the PDSP are described in the NIMH PDSP Assay Protocol Book, Version II and follow published literature protocols.

[7] = molecular target: T1, Sigma1; experiment: Sigma-1 receptor Ki determination (NIMH PDSP); assay type: binding
Protocol: as §1

[8] = molecular target: T2, M1; experiment: Muscarinic M1 receptor Ki determination (NIMH PDSP); assay type: binding
Protocol: as §1

[9] = molecular target: T5, M5 (Homo sapiens, UniProt P08912); experiment: Muscarinic M5 receptor Ki determination (NIMH PDSP); assay type: binding
T5 sequence (P08912 1-532): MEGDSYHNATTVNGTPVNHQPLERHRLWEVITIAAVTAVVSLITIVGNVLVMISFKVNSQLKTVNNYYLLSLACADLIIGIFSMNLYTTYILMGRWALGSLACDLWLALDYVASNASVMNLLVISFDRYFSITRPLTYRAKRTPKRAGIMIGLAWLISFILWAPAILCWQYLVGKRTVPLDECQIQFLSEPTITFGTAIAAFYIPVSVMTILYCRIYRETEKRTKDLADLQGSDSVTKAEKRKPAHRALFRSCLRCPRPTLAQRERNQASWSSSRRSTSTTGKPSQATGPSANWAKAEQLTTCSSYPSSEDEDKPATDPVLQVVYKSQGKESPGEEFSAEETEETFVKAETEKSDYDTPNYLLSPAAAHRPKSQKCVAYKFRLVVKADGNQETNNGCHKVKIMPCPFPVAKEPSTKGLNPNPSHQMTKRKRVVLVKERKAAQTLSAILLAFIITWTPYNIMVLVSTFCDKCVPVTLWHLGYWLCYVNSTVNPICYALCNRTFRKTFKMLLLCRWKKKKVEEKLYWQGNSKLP
Protocol: as §1

T1 sequence (Q99720 whole entry): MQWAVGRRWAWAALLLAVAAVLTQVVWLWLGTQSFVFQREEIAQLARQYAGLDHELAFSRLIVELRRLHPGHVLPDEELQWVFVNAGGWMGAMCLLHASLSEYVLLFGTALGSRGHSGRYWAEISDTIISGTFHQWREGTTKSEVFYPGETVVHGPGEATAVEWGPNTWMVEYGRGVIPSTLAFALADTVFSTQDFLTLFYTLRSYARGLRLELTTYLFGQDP
Sequence of M3 (P20309 whole entry): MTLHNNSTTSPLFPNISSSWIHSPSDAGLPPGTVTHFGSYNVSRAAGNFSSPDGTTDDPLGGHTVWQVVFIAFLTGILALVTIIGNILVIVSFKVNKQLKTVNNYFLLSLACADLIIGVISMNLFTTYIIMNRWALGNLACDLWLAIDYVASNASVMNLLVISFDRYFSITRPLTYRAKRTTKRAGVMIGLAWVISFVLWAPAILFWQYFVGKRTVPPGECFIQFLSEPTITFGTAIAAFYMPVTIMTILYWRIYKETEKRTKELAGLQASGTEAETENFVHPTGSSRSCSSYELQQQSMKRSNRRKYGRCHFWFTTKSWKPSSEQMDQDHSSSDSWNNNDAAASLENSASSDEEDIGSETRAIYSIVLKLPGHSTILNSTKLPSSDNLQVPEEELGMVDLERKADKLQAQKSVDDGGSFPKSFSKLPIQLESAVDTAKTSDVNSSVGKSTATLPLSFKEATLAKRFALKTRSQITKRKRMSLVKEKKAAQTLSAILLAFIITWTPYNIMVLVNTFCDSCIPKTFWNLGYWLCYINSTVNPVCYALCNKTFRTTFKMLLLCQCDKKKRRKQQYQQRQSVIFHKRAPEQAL

Ki [6] [nM]	Ki [7] [nM]	Ki [8] [nM]	Ki [9] [nM]	SMILES	Ki [1] [nM]	Ki [2] [nM]	Ki [3] [nM]	Ki [4] [nM]	Ki [5] [nM]
–	–	–	–	CN(C)CC1CCOC1(c1ccccc1)c1ccccc1 (stereo not drawn) [ANAVEX 2-73]	860	3320	5330	3970	5190
2570	230	1500	1160	CN(CCCC1(c2ccc(F)cc2)OCc2cc(C#N)ccc21)C1=NCCCC1 (stereo not drawn) [Example 3, 1-(4-fluorophenyl)-1-{3-[methyl(3,4,5,6-tetrahydropyridin-2-yl)amino]propyl}-1,3-dihydro-2-benzo-furan-5-carbonitrile]	–	–	–	–	–
